Usually IC50 stands for the concentration at which inhibition is half-maximal.

From patent US5849736A, “Isoxazoline and isoxazole fibrinogen receptor antagonists” (The DuPont Merck Pharmaceutical Company, priority 1995, dated 1998) come the findings set out here.

The subject of this test is platelet aggregation in human platelet rich plasma (PRP). Briefly: Platelet Aggregation Assay (platelet rich plasma, with or without esterase pretreatment). It counts as cell-based. Conditions: Platelet, preincubated with 100 IU/mL porcine liver esterase 2 hours at 37° C., 100 μM ADP, read-out: Platelet Aggregation Assay IC50 (with esterase). An outline of the steps: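 Human citrated PRP from drug-free donors, PPP as 100% transmittance blank; compounds added at various concentrations before agonist (ADP, collagen, arachidonate, epinephrine or thrombin), aggregation followed by light transmittance. Ester prodrugs pretreated (10^-3 M F.C.) with 100 IU/mL porcine liver esterase, 2 h 37 °C; 8 min 37 °C preincubation, then 100 μM ADP, 5 min; % inhibition vs control, IC50.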
As to `N=C(N)NCCC1=NOC(CCC(=O)NCC(NC(=O)OCc2ccccc2)C(=O)O)C1` (stereo not shown) [Example 2400], the IC50 was less than 10 µM. The result for `N=C(N)NCCCC1=NOC(C(=O)NCC(NC(=O)OCc2ccccc2)C(=O)O)C1` (stereo not shown) [Example 2401] reads less than 10 µM; that for `N=C(N)NCCCCCC1=NOC(C(=O)NCC(NC(=O)OCc2ccccc2)C(=O)O)C1` (stereo not shown) [Example 2402], less than 10 µM. With `N=C(N)NCCCC1=NOC(CCC(=O)NCC(NC(=O)OCc2ccccc2)C(=O)O)C1` (stereo not shown) [Example 2403] the figure was less than 10 µM. The result for `N=C(N)NCCCCC1=NOC(CCC(=O)NCC(NC(=O)OCc2ccccc2)C(=O)O)C1` (stereo not shown) [Example 2404] reads less than 10 µM; that for `N=C(N)NCCC1=NOC(C(=O)NCC(NC(=O)OCc2ccccc2)C(=O)O)C1` (stereo not shown) [Example 2405], less than 10 µM. As to `N=C(N)NCCCCC1=NOC(C(=O)NCC(NC(=O)OCc2ccccc2)C(=O)O)C1` (stereo not shown) [Example 2406], the IC50 is less than 10 µM.
